Where a SMILES comes first, the peptide text is derived from it.
Structure (SMILES) | logP
COC1CC(OC2C(O)CC(OC3CCC4(C)C(CCC5C4CC(O)C4(C)C(C6=CC(=O)OC6)CCC54O)C3)OC2C)OC(C)C1OC1CC(O)C(O)C(C)O1 (configuration not stated) | 1.8
Cc1ccc(Cc2c[nH]cn2)c(C)c1 | 2.7
CCCCCCCCCCCCNCCO | 4.51
Nc1nnnn1-c1ccc(Br)cc1 | 1.63
CCCN(CCc1cccs1)C1CCc2c(O)cccc2C1 (configuration not stated) | 4.7
CCOCCOCCOC1CCC(NC(=O)NC23CC4CC(CC(C4)C2)C3)CC1 (configuration not stated) | 2.9
CCCOCCCNc1[nH]cnc2ncnc1-2 | 1.74
CN(C(=O)CO)c1c(I)c(C(=O)NCC(O)CO)c(I)c(C(=O)NCC(O)CO)c1I (configuration not stated) | -2.79
Cc1cc(=O)[nH]c2c1cc(C)c1occ(C)c12 | 3.13
C=C(C)C(=O)OCCCCCCCC(C)C | 5.28
Cc1cccc2c1C(=O)N(CCO[N+](=O)[O-])CO2 | 2.54
Cc1nc2c3c(c(C(=O)N4CCC4)cn2c1C)CCC(c1ccccc1)O3 (configuration not stated) | 3.4
COc1ccc(SC)cc1CNC1CCCNC1c1ccccc1 (configuration not stated) | 3.7
COc1cc2c(Nc3cc(CC(=O)Nc4cccc(F)c4F)[nH]n3)ncnc2cc1OCCCN1CCCC1CO (configuration not stated) | 3.6
CN1CCN(CCCOn2nnc3ccccc32)CC1 | 1.3
COC(=O)CNC(=O)Cn1c(C)nc2ccccc2c1=O | 0.4
CC(=NNC(=O)c1cccc(Br)c1)c1cnccn1 | 2.9
CCOc1cc2ncnc(Nc3cccc(F)c3)c2cc1OCC | 3.71
CC(C)Oc1cccc2nc(N)nc(N)c12 | 2.05
COc1ccc(CNc2[nH]cnc3ncnc2-3)cc1 | 2.17
O=C(c1c(O)c2ccc(Cl)cc2[nH]c1=O)C1CC1 | 2.35

Structure (SMILES) | logP
CN(C)C(C)(C)CO | 0.29
O=C(NS(=O)(=O)c1cnccc1NC1CCCCCC1)N1CCCCC1 | 4.14
CCC(C)C(NC(C)=O)C(=O)NC(Cc1ccccc1)C(=O)NC(CCCNC(=N)N)C(N)=O (stereo not drawn) (Ac-Ile-Phe-Arg-NH2; configuration not given here) | -0.05
CC(=O)c1cc2ccc3cccc4ccc(c1)c2c34 | 4.29
COc1ccc(CCNCC(O)COc2ccc(-c3ncco3)cc2)cc1OC (configuration not stated) | 2.6
C=CCN(N=O)C(=O)N(CCCC(NC(C)=O)C(=O)NCc1ccccc1)Cc1ccccc1 (configuration not stated) | 2.16
NCCCOC1Cc2c(O)cc(O)cc2OC1c1ccc(O)c(O)c1 (configuration not stated) | 0.52
COC(=O)C(C)NP(=O)(OCC1C=CC(n2cc(C)c(=O)[nH]c2=O)O1)Oc1ccc(Cl)cc1 (configuration not stated) | 1.43
Cc1ccccc1Nc1ccncc1S(=O)(=O)NC(=NC#N)NC(C)C | 1.67
CCOC(=O)C1=C(C)NC(C)=C(C(=O)OC)C1C (configuration not stated) | 3.27
Cc1cccc(Cc2c[nH]cn2)c1 | 2.39
O=C1c2c(O)cccc2C(=CNc2ccccc2)c2cccc(O)c21 | 4.96
O[C@@H](c1cc(C(F)(F)F)nc2c(C(F)(F)F)cccc12)[C@H]1CCCCN1 | 4.49
Cc1ccc(C(=O)OCCCn2ccc(=O)c(O)c2C)cn1 | 0.28
CC(C)(C)n1cc(C(=O)O)c(=O)c2cc(F)c(N3CC4CC3CN4)nc21 (configuration not stated) | -0.41
COc1ccc(C2Cc3cc(OC)ccc3N(CCN(C)C)C(=O)C2OC(C)=O)cc1 (configuration not stated) | 3.2
CNc1ncnc2[nH]cnc12 | 0.43
Cn1c(N)nc2c3cccnc3ccc21 | 1.47
CCCNC(=O)CCC(=O)NCc1c(O)c(=O)cc(C)n1C | -0.7
O=[N+]([O-])c1nccn1CC(O)COCF (configuration not stated) | -0.4
CNC1CCc2c(OC)cccc2C1C (configuration not stated) | 2.42

Structure (SMILES) | logP
CC1CC(N)CN1c1nc2c(cc1F)c(=O)c(C(=O)O)cn2-c1ccc(F)cc1F (configuration not stated) | -0.2
CC(C)(C)NC(=O)[C@@H]1C[C@@H]2CCCC[C@@H]2CN1C[C@@H](O)[C@H](Cc1ccccc1)NC(=O)[C@H](CC(N)=O)NC(=O)c1ccc2ccccc2n1 | 4.7
COc1ccc(C2Cc3c(Cl)cccc3N(CCN(C)C)C(=O)C2OC(C)=O)cc1 (configuration not stated) | 4.4
Cc1cc2ccc(=O)oc2c2c(C)coc12 | 2.88
O=[N+]([O-])c1ccc(CSc2ncnc3c(C4OC(CO)C(O)C4O)n[nH]c23)cc1 (configuration not stated) | 0.5
CC(=O)OCOC(=O)N(C)N=Nc1ccc(C#N)cc1 | 2.08
CNc1nccn2c(Cc3ccccc3F)nnc12 | 1.56
Cn1c([N+](=O)[O-])cnc1-c1ccc(F)cc1 | 1.83
O=[N+]([O-])c1ccc2c(c1)-c1ccccc1C2 | 3.99
CNc1ccncc1S(=O)(=O)NC(=NC#N)NC(C)C | -0.65
CC(C)(O)C1CCC2(C)CCC3(CO3)C2C1 (configuration not stated) | 2.9
O=C(NO)C(=Cc1ccccc1)C(=O)NCc1ccc(F)cc1 | 1.7
OC(CNC1CCCC1)CON=C(C1CC1)C1CC1 (configuration not stated) | 2.46
CC(C)C(C)NC(CO)C(O)c1ccccc1 (configuration not stated) | 1.61
CC(C)(O)C1CCC2(C)CCCC(=O)C2C1 (configuration not stated) | 1.92
CCCN(CCC)C1CCc2c(O)cccc2C1 (configuration not stated) | 3.58
C=C1C(=O)OC2CC(C)C3C4CC(=O)C3(CC12)C1(C4)C(=O)OC2CC(C)C3C=CC(=O)C3(C)C(O)C21 (configuration not stated) | 1.66
O=C(NP(=O)(N1CC1)N1CC1)c1ccccc1 | 0.81
CCCCCCCOC(C)=O | 3.46
Cc1cccc2c1OCN(CCO[N+](=O)[O-])C2=O | 2.48
